Measurements published in article PMC6759624, “Unraveling Heparan Sulfate Proteoglycan Binding Motif for Cancer Cell Selectivity” (Frontiers in Oncology, 2019).
Blank lines part the entries; values can stand above or below the molecule they belong to.

Columns and labels:
[1] = system: NT4 (NT4-biotin captured on streptavidin CM5 chip); assay: SPR, synthetic sulfated oligosaccharides injected over immobilized NT4; format: binding; conditions: for Kd (koff) / Ka (Kon) / Kd: immobilized NT4-biotin, HBS-EP+ pH 7.4, 1:1 Langmuir model, oligosaccharide as analyte; for Kd (koff): dissociation rate; for oligosaccharide binding to immobilized NT4 (in words): oligosaccharide 100 μg/ml (Figure 4E)
Description: Eight-mer and nine-mer oligosaccharides S00 (GlcNAc-GlcA)4 α-paranitrophenyl, S04 (GlcNS-GlcA)4 α-paranitrophenyl, S06a (GlcA-GlcNS)2-(GlcA-GlcNS,6S)2-GlcA α-paranitrophenyl (9-mer), and S06b GlcNS-GlcA-GlcNS-IdoA,2S-GlcNS-IdoA,2S-GlcNS-GlcA α-paranitrophenyl were purchased from Iduron. In all oligosaccharides, the units were linked together by α (1–4) bonds only and carry a paranitrophenyl group. S12 (ΔHexA,2S α1-4 GlcNS,6S)3 (9-mer) was from Amsbio, and its first glycoside is unsaturated.
(§1) NT4-biotin was captured on a CM5 sensor chip where streptavidin had previously been immobilized by standard amine coupling. Briefly, the sensor chip surface was activated with a mixture of 0.1 M 1-ethyl-3(3-dimethylaminopropyl)-carbodiimide (EDC) and 0.4 M N-hydroxyl succinimide (NHS) for 7 min at a flow rate of 5 μl/min. Streptavidin was injected over the surface for 7 min, and finally, 1 M ethanolamine pH 8.5 was used to block any activated carboxyl groups. NT4-biotin, diluted in HBS-EP+ (Hepes 10 mM, NaCl 150 mM, EDTA 3.4 mM, 0.05% p20, pH 7.4) to 30 μg/ml, was injected for 2 min at a flow rate of 10 μl/min.
(§2) HSPG and oligosaccharides were diluted to different concentrations in HBS-EP+ and then injected over immobilized NT4 peptides. The sensor chip surface was regenerated with a short pulse of 10 mM NaOH/0.5 M NaCl 5 min after the end of the injections.
(§3) Kinetics were analyzed with the Biacore T100 evaluation 1.1.1 software using the 1:1 Langmuir model to fit the curves.

[2] = system: living cells; conditions: after 24 h; mass spectrometry; ref [14]; cited from earlier work
[3] = system: cancer cell lines; conditions: confocal microscopy, 37°C; "completely internalized only after 2 h"; ref [14], [16]; cited from earlier work
[4] = system: NT4 (NT4-biotin captured on streptavidin CM5 chip); assay: SPR, rHSPG injected over immobilized NT4 (Biacore T100); format: binding; conditions: for Ka (Kon): HBS-EP+ (Hepes 10 mM, NaCl 150 mM, EDTA 3.4 mM, 0.05% p20, pH 7.4), 1:1 Langmuir model, full-length recombinant human HSPG as analyte; for Kd (koff) / Kd: HBS-EP+ pH 7.4, 1:1 Langmuir model, rHSPG as analyte; for Kd (koff): dissociation rate
Experimental: Experiments were performed on a Biacore T100 instrument (GE Healthcare). All materials were purchased from GE Healthcare unless otherwise specified. Full-length recombinant human HSPG were purchased from R&D Systems. Syndecan-3, syndecan-4, and glypican-3 were obtained from the mouse myeloma cell line (NS0), and glypican-4 was obtained from the Chinese Hamster Ovary cell line. The activity of syndecan-4, glypican-3, and glypican-4 was measured by the supplier as the ability of the immobilized protein to bind FGF-basic. The activity of syndecan-3 was measured by the supplier as the ability of the immobilized protein to inhibit adhesion of Saos-2 human osteosarcoma cells to human fibronectin.
as §1, §2, §3

[5] = target: T1, recombinant human glypican-4 (human, UniProt O75487 19-529); assay: SPR; Biacore T100; NT4-biotin captured on streptavidin on a CM5 chip; HSPG diluted in HBS-EP+ (Hepes 10 mM, NaCl 150 mM, EDTA 3.4 mM, 0.05% p20, pH 7.4) injected over it; 1:1 Langmuir model; conditions: both partners purified
T1 construct: also called GPC4; rHSPG; source: bought: R&D Systems; from the Chinese Hamster Ovary cell line
T1 sequence (looked up): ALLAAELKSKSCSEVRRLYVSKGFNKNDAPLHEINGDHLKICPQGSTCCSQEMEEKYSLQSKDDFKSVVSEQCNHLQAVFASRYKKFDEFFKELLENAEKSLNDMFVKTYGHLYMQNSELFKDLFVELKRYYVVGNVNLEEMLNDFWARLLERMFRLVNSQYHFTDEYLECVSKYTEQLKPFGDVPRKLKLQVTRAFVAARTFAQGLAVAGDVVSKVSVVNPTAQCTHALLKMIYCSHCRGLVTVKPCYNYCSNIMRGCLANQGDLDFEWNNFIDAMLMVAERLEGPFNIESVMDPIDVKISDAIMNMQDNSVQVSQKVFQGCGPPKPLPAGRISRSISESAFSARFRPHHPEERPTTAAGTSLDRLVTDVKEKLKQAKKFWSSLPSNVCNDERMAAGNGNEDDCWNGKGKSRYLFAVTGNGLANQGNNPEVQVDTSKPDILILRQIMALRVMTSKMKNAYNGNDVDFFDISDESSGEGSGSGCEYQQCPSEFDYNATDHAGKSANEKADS

[6] = target: recombinant human syndecan-4 (human, UniProt P31431 19-198); assay: as above; conditions: both partners purified
[7] = target: recombinant human glypican-3 (human, UniProt P51654 25-580); assay: as above; conditions: both partners purified

Kd (koff) [1]: 0.002575 s⁻¹ | Kd [1]: 2430 nM | oligosaccharide binding to immobilized NT4 (in words) [1]: bound NT4 better
Molecule: (GlcA-GlcNS)2-(GlcA-GlcNS,6S)2-GlcA α-paranitrophenyl [S06a]
Ka (Kon) [1]: 1060 M⁻¹ s⁻¹

Molecule: (pyELYENKPRRPYIL)4K2K-PEG12-K(biotin) [NT4-biotin]
stability on degradation by living cells [2]: still stable after 24 h | time to complete internalization [3]: 2 h

Kd (koff) [4]: 0.001433 s⁻¹ | Kd [4]: 59.9 nM
Molecule: Glypican-3: full-length recombinant human HSPG from mouse myeloma cell line (NS0), R&D Systems
Ka (Kon) [4]: 23920 M⁻¹ s⁻¹

oligosaccharide binding to immobilized NT4 (in words) [1]: almost total loss of binding
Molecule: (GlcNS-GlcA)4 α-paranitrophenyl [S04]

Kd (koff) [1]: 0.004039 s⁻¹ | Kd [1]: 2700 nM
Molecule: GlcNS-GlcA-GlcNS-IdoA,2S-GlcNS-IdoA,2S-GlcNS-GlcA α-paranitrophenyl [S06b]
Ka (Kon) [1]: 1490 M⁻¹ s⁻¹

Kd (koff) [1]: 0.0009126 s⁻¹ | Kd [1]: 258 nM | oligosaccharide binding to immobilized NT4 (in words) [1]: best-binding oligosaccharide
Molecule: (ΔHexA,2S α1-4 GlcNS,6S)3 [S12]
Ka (Kon) [1]: 3530 M⁻¹ s⁻¹

Kd (koff) [4]: 0.002316 s⁻¹ | Kd [4]: 257 nM
B1: Syndecan-4: full-length recombinant human HSPG from mouse myeloma cell line (NS0), R&D Systems (protein)
chain: ESIRETEVIDPQDLLEGRYFSGALPDDEDVVGPGQESDDFELSGSGDLDDLEDSMIGPEVVHPLVPLDNHIPERAGSGSQVPTEPKKLEENEVIPKRISPVEESEDVSNKVSMSSTVQGSNIFERTEVLAALIVGGIVGILFAVFLILLLMYRMKKKDEGSYDLGKKPIYKKAPTNEFYA
Ka (Kon) [4]: 9010 M⁻¹ s⁻¹

Kd (koff) [4]: 0.0006719 s⁻¹ | Kd [4]: 77.1 nM
B2: Glypican-4: full-length recombinant human HSPG from Chinese Hamster Ovary cell line, R&D Systems (protein)
chain: T1 sequence (looked up)
Ka (Kon) [4]: 8710 M⁻¹ s⁻¹

Kd [5]: 77.1 nM | koff [5]: 0.000672 s⁻¹ | kon [5]: 8710 M⁻¹ s⁻¹ | Kd [6]: 257 nM | koff [6]: 0.00232 s⁻¹ | kon [6]: 9010 M⁻¹ s⁻¹ | Kd [7]: 59.9 nM | koff [7]: 0.00143 s⁻¹ | kon [7]: 23900 M⁻¹ s⁻¹
B3: NT4-biotin (pyELYENKPRRPYIL)4K2K-PEG12-K(biotin) (peptide)
peptide: ELYENKPRRPYIL
modifications: pyroglutamate at position 1 (pyE); the four arms are built on a branching core of lysines, K2K-PEG12-K(biotin)
notes: the 13-amino-acid arm of the tetrabranched peptide; the first letter is pyroglutamate (printed pyE); Tetrabranched: four copies of the arm joined by their C-termini to the amines of a three-lysine core (K2K), followed by PEG12 and Lys(biotin); The core is not written as a chain; also called NT4 peptide; NT4 conjugated with biotin; source: synthetic peptide (Fmoc chemistry, HPLC purified); not …
